Measurements: ChEMBL document CHEMBL1148209, “Isolation and structure determination of cryptophycins 38, 326, and 327 from the terrestrial cyanobacterium Nostoc sp. GSV 224” (J Nat Prod, 2004)

The molecules below were run on KB (assay: Cytotoxicity against human KB cells).
Type: functional, cell-based

In order of falling IC50:
1. COc1ccc(C[C@H]2NC(=O)/C=C\C[C@@H]([C@H](C)[C@H]3O[C@@H]3c3ccccc3)OC(=O)[C@H](CC(C)C)OC(=O)[C@H](C)CNC2=O)cc1Cl [CRYPTOPHYCIN 327]  14100 nM
2. COc1c(Cl)cc(C[C@H]2NC(=O)/C=C/C[C@@H]([C@H](C)[C@H]3O[C@@H]3c3ccccc3)OC(=O)[C@H](CC(C)C)OC(=O)CCNC2=O)cc1Cl [CRYPTOPHYCIN 326]  1160 nM
3. COc1ccc(C[C@H]2NC(=O)/C=C/C[C@@H]([C@H](C)[C@@H]3O[C@@H]3c3ccccc3)OC(=O)[C@H](CC(C)C)OC(=O)[C@H](C)CNC2=O)cc1Cl [CRYPTOPHYCIN 77]  654 nM
4. COc1ccc(C[C@H]2NC(=O)/C=C/C[C@@H]([C@H](C)[C@H]3O[C@H]3c3ccccc3)OC(=O)[C@H](CC(C)C)OC(=O)[C@H](C)CNC2=O)cc1Cl [CRYPTOPHYCIN 39]  72 nM
5. COc1ccc(C[C@H]2NC(=O)/C=C/C[C@@H]([C@H](C)[C@@H]3O[C@H]3c3ccccc3)OC(=O)[C@H](CC(C)C)OC(=O)[C@H](C)CNC2=O)cc1Cl [CRYPTOPHYCIN 38]  54.7 nM
